# Source: patent publication US20160257697A1, “THIOPHENE-SUBSTITUTED TETRACYCLIC COMPOUNDS AND METHODS OFUSE THEREOF FOR THE TREATMENT OF VIRAL DISEASES” (priority 2013, published 2016)
# Like-named read-outs stand apart in the source and are kept apart here.
# What was measured:
# Assay in all cases: microbe, parasite or virus in culture
# Type in all cases: cell-based, Hepatitis C virus (HCV)
# HCV replicon 1B = conditions: Replicon Assay B
# HCV replicon 1AQ30D = conditions: Replicon Assay B
# HCV replicon 1AY93H = conditions: Replicon Assay A
# Summary of the method: (§1)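 Cells seeded 2000/well + compound; 0.5% DMSO, 5% FBS; harvest day 3, lyse. Multiplex TaqMan RT-PCR for replicon (Neo probe) and cyclophilin RNA; amounts from Ct vs log(ng) linear regression of replicon total RNA standards.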
# HCV replicon 1A = conditions: Replicon Assay A
# Summary of the method: as §1
# HCV replicon 2B = conditions: Replicon Assay A
# Summary of the method: as §1
# [1] = read-out: 1A Q30D IC50, replicon 1AQ30D
# [2] = read-out: 1A Y93H IC50, replicon 1AY93H
# [3] = Hepatitis C virus, read-out: 1A Q30D IC50 (nM), replicon 1AQ30D
# [4] = Hepatitis C virus, read-out: 1A Y93H IC50 (nM), replicon 1AY93H
# [5] = Hepatitis C virus, read-out: 2B IC50 (nM), replicon 2B
# [6] = Hepatitis C virus, HCV replicon 1B
# [7] = read-out: 1A Q30D IC50, HCV replicon 1A Q30D
# [8] = read-out: 1A Y93H IC50, HCV replicon 1A Y93H
# [9] = read-out: 2B IC50, HCV replicon 2B
# [10] = HCV replicon 1A Q30D, read-out: 1A Q30D IC50
# [11] = HCV replicon 1A Y93H, read-out: 1A Y93H IC50
# [12] = HCV replicon 2B, read-out: 2B IC50
SMILES,"IC50 (HCV replicon 1B; Hepatitis C virus, replicon 1B) [nM]",IC50 (HCV replicon 1AY93H; [2]) [nM],"IC50 (HCV replicon 2B; read-out: 2B IC50, replicon 2B) [nM]",IC50 (HCV replicon 1AQ30D; [3]) [nM],IC50 (HCV replicon 1A; replicon 1A) [nM],IC50 (HCV replicon 2B; [5]) [nM],IC50 (HCV replicon 1A; HCV replicon 1A) [nM],also measured
"CCCc1ccc(C2Oc3cc(-c4cnc([C@@H]5CCCN5C(=O)[C@@H](NC(=O)OC)C(C)C)[nH]4)cc(F)c3-c3cc4cc(-c5cnc([C@@H]6CCCN6C(=O)[C@@H](NC(=O)OC)C6CCOCC6)[nH]5)ccc4n32)s1 (single isomer, unassigned) [Compound 346]",0.0013,0.0414,0.0374,–,–,–,–,"IC50 (HCV replicon 1AQ30D; [1]): 0.223 nM; IC50 (HCV replicon 1A; Hepatitis C virus, replicon 1A): 0.001 nM"
COC(=O)N[C@H](C(=O)N1CCC[C@@H]1c1ncc(-c2cc(F)c3c(c2)OC(c2ccc(C(C)C)s2)n2c-3cc3cc(-c4c[nH]c([C@@H]5CCCN5C(=O)[C@H](NC(=O)OC)C5C[C@@H](C)O[C@@H](C)C5)n4)ccc32)[nH]1)C(C)C (stereo partly shown) [Compound 234],0.0028,–,–,0.05,0.0033,0.02,–,IC50 (HCV replicon 1AY93H; [4]): 0.004 nM
"COC(=O)NC(C(=O)N1[C@@H]2C[C@@H]2C[C@H]1c1ncc(-c2ccc3c(c2)c(F)c2n3C(c3ccc(C4CC4)s3)Oc3cc(-c4cnc([C@@H]5CCCN5C(=O)[C@@H](NC(=O)OC)C(C)C)[nH]4)ccc3-2)[nH]1)C1C[C@@H](C)O[C@@H](C)C1 (single isomer, unassigned) [Compound 644]",–,–,–,–,–,–,0.00257,IC50 (HCV replicon 1B; [6]): 0.0013 nM; IC50 (HCV replicon 1AQ30D; [7]): 0.0889 nM; IC50 (HCV replicon 1AY93H; [8]): 0.005 nM; IC50 (HCV replicon 2B; [9]): 0.0272 nM
COC(=O)N[C@H](C(=O)N1CCC[C@H]1c1ncc(-c2cc(F)c3c(c2)OC(c2ccc(C4CC4)s2)n2c-3cc3cc(-c4cnc([C@@H]5CCCN5C(=O)[C@@H](NC(=O)OC)C5CC6(COC6)C5)[nH]4)ccc32)[nH]1)C(C)C (mixture of isomers) [Compound 531],–,–,–,–,–,–,–,"IC50 (HCV replicon 1B; [6]): 1.3 nM; IC50 (HCV replicon 1AQ30D; Hepatitis C virus, read-out: 1A Q30D IC50, HCV replicon 1A Q30D): 3.98 nM; IC50 (HCV replicon 1AY93H; Hepatitis C virus, read-out: 1A Y93H IC50, HCV replicon 1A Y93H): 0.912 nM; IC50 (HCV replicon 1A; Hepatitis C virus, HCV replicon 1A): 0.00909 nM; IC50 (HCV replicon 2B; Hepatitis C virus, read-out: 2B IC50, HCV replicon 2B): 4.32 nM"
"CCc1ccc(C2Oc3cc(-c4cnc([C@@H]5CCCN5C(=O)[C@@H](NC(=O)OC)C(C)C)[nH]4)ccc3-c3c(F)c4cc(-c5cnc([C@@H]6CCCN6C(=O)C(NC(=O)OC)C6C[C@@H](C)O[C@@H](C)C6)[nH]5)ccc4n32)s1 (single isomer, unassigned) [Compound 635]",–,–,–,–,–,–,0.0024,IC50 (HCV replicon 1B; HCV replicon 1B): 0.0024 nM; IC50 (HCV replicon 1AQ30D; [7]): 0.744 nM; IC50 (HCV replicon 1AY93H; [8]): 0.0272 nM; IC50 (HCV replicon 2B; [9]): 0.0225 nM
"COC(=O)NC(C(=O)N1CCC[C@H]1c1ncc(-c2cc(F)c3c(c2)OC(c2ccc(C4CCC4)s2)n2c-3cc3cc(-c4cnc([C@@H]5CCCN5C(=O)[C@@H](NC(=O)OC)C5CCOCC5)[nH]4)ccc32)[nH]1)C(C)(C)F (single isomer, unassigned) [Compound 248]",0.0032,0.11,0.076,0.43,0.0025,–,–,–
"COC(=O)NC(C(=O)N1CCC[C@H]1c1ncc(-c2ccc3c(c2)cc2n3C(c3ccc(C4CC4)s3)Oc3cc(-c4cnc([C@@H]5CCCN5C(=O)C(NC(=O)OC)C(C)(C)F)[nH]4)cc(F)c3-2)[nH]1)C1C[C@@H](C)O[C@@H](C)C1 (single isomer, unassigned) [Compound 379]",0.0011,–,–,0.798,–,0.178,–,"IC50 (HCV replicon 1AY93H; [4]): 0.0803 nM; IC50 (HCV replicon 1A; Hepatitis C virus, replicon 1A): 0.0022 nM"
"CCc1ccc(C2Oc3cc(-c4cnc([C@@H]5CCCN5C(=O)[C@@H](NC(=O)OC)C(C)C)[nH]4)ccc3-c3c(F)c4cc(-c5cnc([C@@H]6CCCN6C(=O)C(NC(=O)OC)C6C[C@@H](C)O[C@@H](C)C6)[nH]5)ccc4n32)s1 (single isomer, unassigned) [Compound 634]",–,–,–,–,–,–,0.0023,IC50 (HCV replicon 1B; [6]): 0.0015 nM; IC50 (HCV replicon 1AQ30D; [7]): 0.237 nM; IC50 (HCV replicon 1AY93H; [8]): 0.0149 nM; IC50 (HCV replicon 2B; [9]): 0.027 nM
"COC(=O)NC(C(=O)N1CCC[C@H]1c1ncc(-c2ccc3c(c2)cc2n3C(c3ccc(CC4CC4)s3)Oc3cc(-c4cnc([C@@H]5CCCN5C(=O)[C@@H](NC(=O)OC)C(C)C)[nH]4)cc(F)c3-2)[nH]1)C1CCOC(C)(C)C1 (single isomer, unassigned) [Compound 408]",–,–,–,–,–,–,0.0035,IC50 (HCV replicon 1B; HCV replicon 1B): 0.0019 nM; IC50 (HCV replicon 1AQ30D; [7]): 0.0261 nM; IC50 (HCV replicon 1AY93H; [8]): 0.004 nM; IC50 (HCV replicon 2B; [9]): 0.005 nM
"COC(=O)NC(C(=O)N1CCC[C@H]1c1ncc(-c2cc(F)c3c(c2)OC(c2ccc(C4CCC4)s2)n2c-3cc3cc(-c4cnc([C@@H]5CCCN5C(=O)[C@@H](NC(=O)OC)C5CCOCC5)[nH]4)ccc32)[nH]1)C(C)(C)F (single isomer, unassigned) [Compound 251]",–,0.06,0.1,–,0.0012,–,–,IC50 (HCV replicon 1B; replicon 1B): 0.0025 nM; IC50 (HCV replicon 1AQ30D; [1]): 0.4 nM
"COC(=O)N[C@H](C(=O)N1CCC[C@H]1c1ncc(-c2ccc3c(c2)OC(c2ccc(C4CC4)s2)n2c-3c(F)c3cc(-c4cnc([C@@H]5C[C@H]6C[C@H]6N5C(=O)[C@@H](NC(=O)OC)C(C)C)[nH]4)ccc32)[nH]1)C(C)C (single isomer, unassigned) [Compound 613]",–,–,–,–,–,–,0.0025,IC50 (HCV replicon 1B; HCV replicon 1B): 0.0023 nM; IC50 (HCV replicon 1AQ30D; [7]): 0.992 nM; IC50 (HCV replicon 1AY93H; [8]): 0.0157 nM; IC50 (HCV replicon 2B; [9]): 0.342 nM
"CCCc1ccc(C2Oc3cc(-c4cnc([C@@H]5CCCN5C(=O)[C@@H](NC(=O)OC)C(C)C)[nH]4)cc(F)c3-c3cc4cc(-c5cnc([C@@H]6CCCN6C(=O)C(NC(=O)OC)C6C[C@@H](C)O[C@@H](C)C6)[nH]5)ccc4n32)s1 (single isomer, unassigned) [Compound 370]",–,0.0022,0.0066,–,0.0014,–,–,IC50 (HCV replicon 1B; replicon 1B): 0.002 nM; IC50 (HCV replicon 1AQ30D; [1]): 0.0454 nM
CCc1ccc(C2Oc3cc(-c4cnc([C@@H]5CCCN5C(=O)[C@@H](NC(=O)OC)C(C)C)[nH]4)cc(F)c3-c3cc4cc(-c5cnc([C@@H]6CCCN6C(=O)[C@H](NC(=O)OC)C6C[C@@H](C)O[C@@H](C)C6)[nH]5)ccc4n32)s1 (stereo partly shown) [Compound 144],0.0021,–,–,0.057,–,0.022,–,"IC50 (HCV replicon 1AY93H; [4]): 0.003 nM; IC50 (HCV replicon 1A; Hepatitis C virus, replicon 1A): 0.003 nM"
"COC(=O)N[C@H](C(=O)N1CCC[C@H]1c1ncc(-c2cc(F)c3c(c2)OC(c2ccc(CC(C)(C)OC)s2)n2c-3cc3cc(-c4cnc([C@@H]5CCCN5C(=O)[C@@H](NC(=O)OC)C(C)C)[nH]4)ccc32)[nH]1)C(C)C (single isomer, unassigned) [Compound 844]",–,–,–,–,–,–,0.0022,IC50 (HCV replicon 1B; HCV replicon 1B): 0.0026 nM; IC50 (HCV replicon 1AQ30D; [10]): 0.239 nM; IC50 (HCV replicon 1AY93H; [11]): 0.023 nM; IC50 (HCV replicon 2B; [12]): 0.213 nM
"COC(=O)N[C@H](C(=O)N1CCC[C@H]1c1ncc(-c2cc(F)c3c(c2)OC(c2cc(C4CC4)cs2)n2c-3cc3cc(-c4cnc([C@@H]5CCCN5C(=O)[C@@H](NC(=O)OC)C(C)C)[nH]4)ccc32)[nH]1)C(C)C (single isomer, unassigned) [Compound 23]",0.0039,0.24,0.78,–,–,–,–,"IC50 (HCV replicon 1AQ30D; [1]): 1.75 nM; IC50 (HCV replicon 1A; Hepatitis C virus, replicon 1A): 0.0032 nM"
CCc1ccc(C2Oc3cc(-c4cnc([C@@H]5CCCN5C(=O)[C@@H](NC(=O)OC)C(C)C)[nH]4)cc(F)c3-c3cc4cc(-c5cnc([C@@H]6CCCN6C(=O)[C@H](NC(=O)OC)C6CCOC(C)(C)C6)[nH]5)ccc4n32)s1 (stereo partly shown) [Compound 151],0.0024,–,–,0.022,–,0.004,–,"IC50 (HCV replicon 1AY93H; [4]): 0.003 nM; IC50 (HCV replicon 1A; Hepatitis C virus, replicon 1A): 0.002 nM"
"COC(=O)NC(C(=O)N1CCC[C@H]1c1ncc(-c2cc(F)c3c(c2)OC(c2ccc(C4CC4)s2)n2c-3cc3cc(-c4cnc([C@@H]5CCCN5C(=O)[C@@H](NC(=O)OC)C(C)C)[nH]4)ccc32)[nH]1)C1C[C@@H](C)O[C@@H](C)C1 (single isomer, unassigned) [Compound 189]",–,0.26,0.48,–,0.0013,–,–,IC50 (HCV replicon 1B; replicon 1B): 0.0018 nM; IC50 (HCV replicon 1AQ30D; [1]): 1.42 nM
"COC(=O)NC(C(=O)N1CCC[C@H]1c1ncc(-c2ccc3c(c2)cc2n3C(c3cc(C)c(C)s3)Oc3cc(-c4cnc([C@@H]5CCCN5C(=O)[C@@H](NC(=O)OC)C(C)C)[nH]4)cc(F)c3-2)[nH]1)C(C)(C)F (single isomer, unassigned) [Compound 39]",0.001,0.12,–,0.61,0.002,0.45,–,–
"COC(=O)NC(C(=O)N1CCC[C@H]1c1ncc(-c2cc(F)c3c(c2)OC(c2ccc(C4CC4)s2)n2c-3cc3cc(-c4cnc([C@@H]5CCCN5C(=O)C(NC(=O)OC)C5C[C@@H](C)O[C@@H](C)C5)[nH]4)ccc32)[nH]1)C1C[C@@H](C)O[C@@H](C)C1 (single isomer, unassigned) [Compound 301]",0.002,0.11,–,0.33,0.0025,0.037,–,–
"COC(=O)N[C@H](C(=O)N1CCC[C@H]1c1ncc(-c2cc(F)c3c(c2)OC(c2ccc(C4(C)CC4)s2)n2c-3cc3cc(-c4cnc([C@@H]5CCCN5C(=O)[C@@H](NC(=O)OC)C(C)C)[nH]4)ccc32)[nH]1)C(C)C (single isomer, unassigned) [Compound 836]",–,–,–,–,–,–,0.0021,IC50 (HCV replicon 1B; HCV replicon 1B): 0.0018 nM; IC50 (HCV replicon 1AQ30D; [10]): 0.297 nM; IC50 (HCV replicon 1AY93H; [11]): 0.016 nM; IC50 (HCV replicon 2B; [12]): 0.06 nM
